Values joined by “and” are separate entries in the source; they are usually repeats but may differ in a detail not shown here. Identical values can stand only once.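 These data come from cells grown in 96-well plates and exposed to compound for 48 hours at five concentrations. Abbreviation: GI50, concentration required for 50% inhibition of growth. TGI: concentration producing complete growth inhibition.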
Columns and labels:
Assay in all cases: inhibition of tumour cell growth, NCI panel, 48 h
HOP-92 NSCLC = tested on: HOP-92 NSCLC
MOLT-4 leukemia = tested on: MOLT-4 leukemia
LOX IMVI melanoma = tested on: LOX IMVI melanoma
OVCAR-3 ovarian = tested on: OVCAR-3 ovarian
SW-620 colon = tested on: SW-620 colon
RPMI-8226 leukemia = tested on: RPMI-8226 leukemia
HOP-62 NSCLC = tested on: HOP-62 NSCLC
UO-31 renal = tested on: UO-31 renal
IGROV1 ovarian = tested on: IGROV1 ovarian
PC-3 prostate = tested on: PC-3 prostate

| SMILES | GI50 (HOP-92 NSCLC) [µM] | TGI (HOP-92 NSCLC) | GI50 (MOLT-4 leukemia) [µM] | TGI (MOLT-4 leukemia) | GI50 (LOX IMVI melanoma) [µM] | TGI (LOX IMVI melanoma) [µM] | GI50 (OVCAR-3 ovarian) [µM] | TGI (OVCAR-3 ovarian) [µM] | GI50 (SW-620 colon) [µM] | TGI (SW-620 colon) [µM] | GI50 (RPMI-8226 leukemia) [µM] | TGI (RPMI-8226 leukemia) [µM] | GI50 (HOP-62 NSCLC) [µM] | TGI (HOP-62 NSCLC) [µM] | GI50 (UO-31 renal) [µM] | TGI (UO-31 renal) [µM] | GI50 (IGROV1 ovarian) [µM] | TGI (IGROV1 ovarian) [µM] | GI50 (PC-3 prostate) [µM] | TGI (PC-3 prostate) [µM] |
| --- | --- | --- | --- | --- | --- | --- | --- | --- | --- | --- | --- | --- | --- | --- | --- | --- | --- | --- | --- | --- |
| Cn1cc(-c2ccc3c(c2)ncn3-c2ccc(CC(=O)Nc3cc(C(C)(C)C)on3)cc2)cn1 | 0.227 | 1.42 µM | 1.58 | > 100 µM | 0.732 | 4.87 | 2.06 | > 39.8 | 2.44 | > 100 | 3.35 | > 100 | 1.41 | 29.4 | 0.224 | 2.2 | 0.235 | 1.31 | 2.78 | > 74.7 |
| COc1cc2c(c(Br)c1N)-c1cc(Br)c(N)cc1C2=O | 2.98 | > 100 µM | > 100 | > 100 µM | > 100 | > 100 | > 100 | > 100 | > 100 | > 100 | > 100 | > 100 | 10.1 | > 100 | > 100 | > 100 | 0.205 | > 100 | > 100 | > 100 |
| O=S(=O)(Nc1ccc2ccc3cccc4ccc1c2c34)c1ccccc1 | – | 98.3 µM | – | > 100 µM | – | > 100 | – | 48.9 | – | > 100 | – | 32.5 | – | > 100 | – | > 100 | – | > 100 | – | > 100 |
| CC(=O)NNc1nc(C)c(C(/C=C/c2ccc3c(c2)OCO3)=N/NC(=O)c2ccncc2)s1 | – | > 100 µM | – | > 100 µM | – | > 100 | – | > 100 | – | > 100 | – | > 100 | – | > 100 | – | > 100 | – | > 100 | – | > 100 |
| O=C(O)Cc1ccccc1 | > 1000 | > 1000 µM and 1250 µM | > 1000 | > 1000 µM and 1260 µM | > 1000 | > 2000 | – | > 2000 | > 1000 | > 2000 | – | 1420 | > 1000 | > 2000 | – | > 2000 | > 1000 | > 2000 | > 1000 | > 2000 |
| C/C=C(\C)C(=O)O[C@@H]1C=CC(=O)O[C@H]1COC(=O)[C@H](C)O | 7.83 | 21.9 µM | 7.31 | 28.4 µM | 9.64 | 22.2 | 14 | 27.6 | 4.79 | 15.9 | 18.8 | 44.2 | 16.8 | 33.3 | 12.7 | 27.5 | 7.46 | 24.6 | 10.5 | 31.6 |
| CC1(C)CCC(CN2CCN(c3ccc(C(=O)NS(=O)(=O)c4ccc(NCC5CCOCC5)c([N+](=O)[O-])c4)c(Oc4cnc5[nH]ccc5c4)c3)CC2)=C(c2ccc(Cl)cc2)C1 | 1.29 | 2.77 µM | 2.15 | 5.27 µM | 2.21 | 4.85 | 2.31 | 5.44 | 3.95 | 16.8 | 1.78 | 5.54 | 4.1 | 15.8 | 2.57 | 8.26 | 2.98 | 9.57 | 1.93 | 5.54 |
| COc1ccc(C2=NN(c3ccc(S(N)(=O)=O)cc3)C(c3ccc(Cl)cc3)C2)c(O)c1 (configuration not stated) | 2.97 | 15.6 µM | 1.92 | 5.07 µM | 4.83 | 17 | 2.6 | 7.45 | 3.68 | 14.8 | 1.84 | 6.71 | 9.35 | 28.5 | 1.97 | 13.5 | 3.63 | 15.2 | 2.78 | 14.6 |
| O=C(Nc1ccc(Cl)cc1)C(=O)C1=C(O)c2ccccc2OC1 | – | > 100 µM | – | > 100 µM | – | > 100 | – | > 100 | – | > 100 | – | > 100 | – | – | – | > 100 | – | > 100 | – | > 100 |
| C[C@@H](Oc1cc(-n2cnc3ccc(OCC4CCN(C)CC4)cc32)sc1C(N)=O)c1ccccc1C(F)(F)F | 0.307 | 3.43 µM | 0.0916 | 2.98 µM | 0.106 | 3.27 | 0.0801 | 2.86 | 0.0648 | 3.5 | 0.133 | 5.89 | 0.0994 | 3.11 | 0.948 | 4.33 | 0.217 | 4.41 | 0.114 | 4.08 |
| COc1cc2nc(-c3ccc(Cl)cc3)cc(OCCCN3CCC(O)CC3)c2cc1OC | 1.25 | 6.79 µM | 1.8 | 4.54 µM | 0.227 | 0.589 | 3.24 | 28.3 | 3.05 | 13 | – | – | 1.98 | 10.4 | 1.72 | 5.97 | 0.923 | 14.9 | 2.02 | 12.7 |
| CC1(C)OCC(C2OC(On3nnc4ccc(Cl)cc43)C3OC(C)(C)OC23)O1 (configuration not stated) | – | > 100 µM | – | > 100 µM | – | > 100 | – | > 100 | – | > 100 | – | > 100 | – | > 100 | – | – | – | > 100 | – | > 100 |
| CCOC(=O)c1c(-c2ccccc2)[nH]c2ccccc2c1=O | – | > 100 µM | – | > 100 µM | – | – | – | – | – | > 100 | – | > 100 | – | > 100 | – | > 100 | – | > 100 | – | > 100 |
| Cn1cc(-c2nonc2-c2cn(C)c3ccc(Br)cc23)c2ccccc21 | 5.16 | > 100 µM | – | – | – | – | 2.8 | 8.61 | 2.53 | > 100 | 3.32 | > 100 | 5.51 | > 100 | 3.39 | > 100 | 5.13 | > 100 | 4.06 | > 100 |

From PubChem BioAssay (NCI)
